Source: US10537549B2, “Dihydroisoxazole compound for use in controlling sea lice” (Elanco Tiergesundheit AG, priority 2016, dated 2020)

Assays:
[1] = test system: Lepeophtheirus Salmonis at Copepodid Stage; test: Activity in vitro against Lepeophtheirus salmonis at copepodid stage; details: 1 hour contact, then 48 h in untreated sea water
Experimental: Stir a mixture of 3-[(5S)-5-(3,4,5-trichlorophenyl)-5-(trifluoromethyl)-4H-isoxazol-3-yl]-4,5,6,7-tetrahydro-2-benzothiophene-1-carboxylic acid (15.00 g, 30.08 mmol), 2-amino-N-prop-2-ynyl-acetamide (4.90 g, 33.09 mmol, HCl), 1-[bis(dimethylamino)methylene]-1H-1,2,3-triazolo[4,5-b]pyridinium 3-oxid hexafluorophosphate (13.72 g, 36.10 mmol) and N,N-diisopropylethylamine (11.66 g, 90.24 mmol) in dichloromethane (500 mL) at 25° C. for 12 hours. Use thin layer chromatography (petroleum ether:ethyl acetate=3:1, Rf=0.30) to show the reaction progress. Dilute the mixture in water (500 mL) and extract with dichloromethane (500 mL×3). Wash the organic layer with brine (500 mL), dry over sodium sulfate, filter and concentrate under reduced pressure to dryness. […]

[2] = test system: Lepeophtheirus Salmonis (copepodids, MERL resistant strain IoA-01) on Atlantic Salmon; test: Activity in vivo against Lepeophtheirus salmonis on Atlantic Salmon using in-feed application; details: in-feed 5 mg/kg/day for 7 days
Experimental: Activity In Vivo Against Lepeophtheirus Salmonis on Atlantic Salmon Using in-Feed Application
60 Salmon (Atlantic Salmon, S. salar) of average weight 306.5 g are treated with medicated pellets containing the compound of Example 1 (test compound) at a dose of 5 mg/kg/day during 7 consecutive days. The medicated pellets are prepared by dry coating commercially available fish feed pellets with pre-mix containing the test compound to reach a content of […] test compound in the fish feed, sealing with 1% fish oil and administering at a 1% feeding rate. The treatment is carried out in sea water. After treatment, the fish are challenged with copepodids (the MERL resistant strain IoA-01) on 35, 100 and 150 days post-treatment. During the study the water temperature varies between 7 and 10° C. Fish weight and sea louse numbers are assessed 42, 107 and 157 days post-treatment. Counts are conducted on 30 fish at each sampling occasion.
Efficacy is determined by comparison with a negative control (placebo) group.
Efficacy is calculated using the formula: % Efficacy=100−(100×mean of treatment group/mean of control).
All fish are anaesthetized with 2-phenoxy-ethanol and examined for louse settlement under a dissecting microscope. After counting, fish are returned to the tanks.

## C#CCNC(=O)CNC(=O)c1sc(C2=NO[C@@](c3cc(Cl)c(Cl)c(Cl)c3)(C(F)(F)F)C2)c2c1CCCC2 [Example 1, N-[2-oxo-2-(prop-2-ynylamino)ethyl]-3-[(5S)-5-(3,4,5-trichlorophenyl)-5-(trifluoromethyl)-4H-isoxazol-3-yl]-4,5,6,7-tetrahydro-2-benzothiophene-1-carboxamide]
[1]; 0.5 ng/ml sea water
  efficacy (no copepodid moves over a period of 80 seconds): 100%
[1]; serial dilution
  minimal effective dose (MED): dose showing 100% efficacy: ≤ 0.5 ng/ml sea water
[2]; challenge 35 days post treatment (counts at 42 days)
  % Efficacy vs placebo group (sea louse counts): 100%
[2]; challenge 100 days post treatment (counts at 107 days)
  % Efficacy vs placebo group (sea louse counts): 100%
[2]; challenge 150 days post treatment (counts at 157 days)
  % Efficacy vs placebo group (sea louse counts): 100%
